# Patent US10870647B2, “Imidazopyridine derivative, method for preparing same, and pharmaceutical composition containing same as active ingredient for preventing or treating cancer” (DAEGU-GYEONGBUK MEDICAL INNOVATION FOUNDATION, priority 2016, dated 2020)
# Like-named read-outs stand apart in the source and are kept apart here.
# Key:
# Assay in all cases: Kinase selectivity, scanMAX Kinase assay panel (DiscoverX), % control at 1 uM
# Format in all cases: binding
# [1] = biological target: T1, scanMAX Kinase assay panel (Homo sapiens, UniProt P57058); conditions: HUNK; 1 uM; read-out: Percent Control (%)
# T1 construct: purchased DiscoverX
# T1 sequence (P57058 1-714): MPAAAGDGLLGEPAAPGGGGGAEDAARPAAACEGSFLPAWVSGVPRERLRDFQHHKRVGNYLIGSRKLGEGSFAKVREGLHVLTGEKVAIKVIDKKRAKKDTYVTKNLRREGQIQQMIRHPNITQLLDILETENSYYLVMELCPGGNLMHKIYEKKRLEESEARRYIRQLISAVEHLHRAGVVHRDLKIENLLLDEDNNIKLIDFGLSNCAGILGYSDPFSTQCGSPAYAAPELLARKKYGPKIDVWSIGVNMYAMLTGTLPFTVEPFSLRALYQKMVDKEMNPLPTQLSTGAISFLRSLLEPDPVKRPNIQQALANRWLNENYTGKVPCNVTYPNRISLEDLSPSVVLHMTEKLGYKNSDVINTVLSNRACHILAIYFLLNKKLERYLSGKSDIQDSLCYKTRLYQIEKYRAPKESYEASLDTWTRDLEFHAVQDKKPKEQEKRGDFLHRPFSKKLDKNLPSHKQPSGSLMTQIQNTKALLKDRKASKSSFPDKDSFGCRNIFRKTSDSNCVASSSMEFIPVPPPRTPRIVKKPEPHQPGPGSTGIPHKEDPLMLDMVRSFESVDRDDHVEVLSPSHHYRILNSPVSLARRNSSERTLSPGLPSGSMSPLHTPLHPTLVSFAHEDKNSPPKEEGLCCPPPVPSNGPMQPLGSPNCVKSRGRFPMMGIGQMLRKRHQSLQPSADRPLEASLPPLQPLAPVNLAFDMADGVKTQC
# Summary of the method: (§1)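 Read-out is percent of control, derived from the signal with compound relative to positive and negative controls: (compound − positive)/(negative − positive) × 100. Each enzyme received test drug at 1 uM in DMSO, and values under 35% count as active.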
# [2] = biological target: T2, scanMAX Kinase assay panel (Homo sapiens, UniProt P00519, H396P); conditions: 1 uM, read-out: Percent Control (%)
# T2 construct: purchased DiscoverX
# Summary of the method: as §1
# [3] = biological target: T3, scanMAX Kinase assay panel (Homo sapiens, UniProt Q14164); conditions: IKK-epsilon; 1 uM; read-out: Percent Control (%)
# T3 construct: purchased DiscoverX
# T3 sequence (Q14164 1-716): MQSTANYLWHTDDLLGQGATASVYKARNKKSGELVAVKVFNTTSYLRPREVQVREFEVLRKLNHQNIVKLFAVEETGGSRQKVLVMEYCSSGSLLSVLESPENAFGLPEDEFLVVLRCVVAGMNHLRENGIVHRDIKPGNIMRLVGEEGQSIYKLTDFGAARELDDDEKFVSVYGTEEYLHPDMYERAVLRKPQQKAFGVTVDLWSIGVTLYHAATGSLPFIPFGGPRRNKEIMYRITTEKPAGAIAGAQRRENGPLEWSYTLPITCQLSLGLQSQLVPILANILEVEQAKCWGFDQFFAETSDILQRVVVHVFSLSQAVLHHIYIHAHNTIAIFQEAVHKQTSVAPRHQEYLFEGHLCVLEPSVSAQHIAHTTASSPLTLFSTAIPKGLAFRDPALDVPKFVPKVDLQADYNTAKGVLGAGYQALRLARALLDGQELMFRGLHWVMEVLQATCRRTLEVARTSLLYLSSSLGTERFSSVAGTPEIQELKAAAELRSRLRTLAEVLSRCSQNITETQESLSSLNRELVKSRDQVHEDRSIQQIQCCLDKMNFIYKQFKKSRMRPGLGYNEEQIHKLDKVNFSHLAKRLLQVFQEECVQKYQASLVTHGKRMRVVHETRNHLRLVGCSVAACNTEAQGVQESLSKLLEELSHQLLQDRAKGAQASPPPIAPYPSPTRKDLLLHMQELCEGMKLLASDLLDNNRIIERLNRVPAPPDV
# Summary of the method: as §1
# [4] = biological target: T4, scanMAX Kinase assay panel (Homo sapiens, UniProt Q9Y4K4); conditions: MAP4K5; 1 uM; read-out: Percent Control (%)
# T4 construct: purchased DiscoverX
# T4 sequence (Q9Y4K4 whole entry): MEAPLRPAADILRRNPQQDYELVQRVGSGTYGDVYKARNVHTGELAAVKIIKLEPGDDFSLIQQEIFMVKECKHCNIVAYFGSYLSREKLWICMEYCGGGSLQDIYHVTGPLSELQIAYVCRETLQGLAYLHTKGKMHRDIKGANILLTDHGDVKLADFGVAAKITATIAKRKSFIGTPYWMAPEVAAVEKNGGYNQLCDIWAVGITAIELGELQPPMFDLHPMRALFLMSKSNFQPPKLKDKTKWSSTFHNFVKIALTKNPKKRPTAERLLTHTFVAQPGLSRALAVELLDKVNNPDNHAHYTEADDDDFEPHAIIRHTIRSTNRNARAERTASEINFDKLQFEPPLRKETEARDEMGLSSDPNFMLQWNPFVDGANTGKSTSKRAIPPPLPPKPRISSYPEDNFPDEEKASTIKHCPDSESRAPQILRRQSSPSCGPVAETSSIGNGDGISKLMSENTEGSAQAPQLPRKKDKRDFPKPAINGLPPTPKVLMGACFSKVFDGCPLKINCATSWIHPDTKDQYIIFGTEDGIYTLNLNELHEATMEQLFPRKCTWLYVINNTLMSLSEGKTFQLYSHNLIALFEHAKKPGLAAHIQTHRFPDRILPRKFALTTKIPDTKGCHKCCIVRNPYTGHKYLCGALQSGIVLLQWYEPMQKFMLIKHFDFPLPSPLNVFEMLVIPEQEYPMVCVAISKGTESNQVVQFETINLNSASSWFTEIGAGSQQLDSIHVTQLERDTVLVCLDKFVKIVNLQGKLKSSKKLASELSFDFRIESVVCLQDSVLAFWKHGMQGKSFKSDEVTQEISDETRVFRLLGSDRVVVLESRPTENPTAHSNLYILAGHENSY
# Summary of the method: as §1
# [5] = biological target: T5, scanMAX Kinase assay panel (Homo sapiens, UniProt Q8WTQ7); conditions: GRK7; 1 uM; read-out: Percent Control (%)
# T5 construct: purchased DiscoverX
# T5 sequence (Q8WTQ7 1-553): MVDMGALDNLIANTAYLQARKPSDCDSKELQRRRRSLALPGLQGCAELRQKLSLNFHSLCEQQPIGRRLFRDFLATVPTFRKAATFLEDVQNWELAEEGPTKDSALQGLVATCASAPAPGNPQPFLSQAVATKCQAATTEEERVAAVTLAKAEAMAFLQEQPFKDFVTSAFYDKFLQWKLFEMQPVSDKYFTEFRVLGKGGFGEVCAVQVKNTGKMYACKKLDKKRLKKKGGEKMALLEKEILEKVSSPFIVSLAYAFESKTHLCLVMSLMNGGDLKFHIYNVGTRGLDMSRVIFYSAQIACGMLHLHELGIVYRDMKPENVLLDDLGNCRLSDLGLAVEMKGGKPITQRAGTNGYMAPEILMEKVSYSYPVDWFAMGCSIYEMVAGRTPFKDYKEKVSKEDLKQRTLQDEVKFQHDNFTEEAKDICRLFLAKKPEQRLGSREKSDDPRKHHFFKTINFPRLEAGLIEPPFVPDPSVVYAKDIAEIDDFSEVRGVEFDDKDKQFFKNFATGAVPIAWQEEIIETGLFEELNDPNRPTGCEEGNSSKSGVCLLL
# Summary of the method: as §1
# [6] = biological target: T6, scanMAX Kinase assay panel (Homo sapiens, UniProt P07947); conditions: YES; 1 uM; read-out: Percent Control (%)
# T6 construct: purchased DiscoverX
# T6 sequence (P07947 whole entry): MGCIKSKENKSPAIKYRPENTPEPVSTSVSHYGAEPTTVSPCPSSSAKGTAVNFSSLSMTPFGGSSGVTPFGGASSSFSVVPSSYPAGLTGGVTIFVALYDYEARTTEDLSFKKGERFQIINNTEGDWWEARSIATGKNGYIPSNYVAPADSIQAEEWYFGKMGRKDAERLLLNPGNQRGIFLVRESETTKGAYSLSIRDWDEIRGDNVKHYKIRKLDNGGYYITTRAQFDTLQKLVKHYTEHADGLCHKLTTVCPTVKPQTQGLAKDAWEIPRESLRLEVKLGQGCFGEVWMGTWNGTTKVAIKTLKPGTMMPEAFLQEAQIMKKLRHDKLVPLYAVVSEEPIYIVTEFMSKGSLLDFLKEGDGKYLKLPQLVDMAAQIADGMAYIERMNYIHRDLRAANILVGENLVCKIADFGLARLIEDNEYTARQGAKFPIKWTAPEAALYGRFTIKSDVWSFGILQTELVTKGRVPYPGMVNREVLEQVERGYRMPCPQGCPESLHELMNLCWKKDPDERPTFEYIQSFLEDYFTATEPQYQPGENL
# Summary of the method: as §1
SMILES,remaining binding at 1 µM [1] [%],remaining binding at 1 µM ([2]; ABL1 (H396P)-nonphosphorylated) [%],remaining binding at 1 µM ([2]; ABL1 (H396P)-phosphorylated) [%],remaining binding at 1 µM [3] [%],remaining binding at 1 µM [4] [%],remaining binding at 1 µM [5] [%],remaining binding at 1 µM [6] [%]
"Cc1ccc(C(=O)Nc2ccc(CN3CCN(C)CC3)c(C(F)(F)F)c2)cc1C#Cc1cnc2c(Nc3cnn(C)c3)cccn12 [Example 1, 4-methyl-3-((8-((1-methyl-1H-pyrazol-4-yl)amino)imidazo[1,2-a]pyridin-3-yl)ethynyl)-N-(4-((4-methylpiperazin-1-yl)methyl)-3-(trifluoromethyl)phenyl)benzamide]",74,1,0,66,1,81,1
"Cc1cn(-c2cc(NC(=O)c3ccc(C)c(C#Cc4cnc5c(Nc6cnn(C)c6)cccn45)c3)cc(C(F)(F)F)c2)cn1 [Example 12, 4-methyl-N-(3-(4-methyl-1H-imidazol-1-yl)-5-(trifluoromethyl)phenyl)-3-((8-((1-methyl-1H-pyrazol-4-yl)amino)imidazo[1,2-a]pyridin-3-yl)ethynyl)benzamide]",79,0,10,100,12,100,2
Cc1ccc(NC(=O)C2(C(=O)Nc3ccc(F)cc3)CC2)cc1C#Cc1cnc2c(Nc3cnn(C(C)C)c3)cccn12 [Example 78],93,4,64,100,82,92,100
